Literature values in patent publication US4983400A, “Controlled release combination of carbidopa/levodopa” (priority 1989, dated 1991).

Experiments:
[1] = in vivo

N[C@@H](Cc1ccc(O)c(O)c1)C(=O)O [levodopa]
adverse reactions [1]: severe adverse reactions, especially emesis, were experienced | effect of high protein meals on plasma levodopa levels (human, in vivo, iv): without affecting plasma levodopa levels | motor oscillations (intravenous): reduces motor oscillations | effect of high protein meals on response (intravenous, high protein meals): decline in response | residual symptoms at optimal response (intravenous, some patients): either tremor and bradykinesia or mobility with dyskinesia
